Laboratory results reported in ChEMBL document CHEMBL4351009, “hERG optimizations of IMB1603, discovery of alternative benzothiazinones as new antitubercular agents” (Eur J Med Chem, 2019).
Values after ≈ are worked out from the molar mass of the structure shown.

Assays:
[1] = tested on: Mycobacterium tuberculosis; assay: Antimycobacterial activity against Mycobacterium tuberculosis H37Rv ATCC 27294 assessed as reduction in bacterial cell viability incubated for 7 days by microplate alamar blue assay; assay type: functional; details: H37Rv ATCC 27294, 168 h
[2] = tested on: Mycobacterium tuberculosis; assay: Antimycobacterial activity against Mycobacterium tuberculosis H37Rv infected in BALB/c mouse assessed as reduction in colony forming unit in lung at 25 mg/kg, po administered once daily for 5 days a week for 3 weeks; assay type: functional
hERG (KCNH2) = hERG (KCNH2) (Homo sapiens, UniProt Q12809); assay: Inhibition of human ERG transfected in HEK293 cells at 10 uM by whole cell patch clamp assay relative to control; assay type: cell-based; details: HEK293 cells transfected with human ERG
Chain of hERG (KCNH2) (Q12809 whole entry): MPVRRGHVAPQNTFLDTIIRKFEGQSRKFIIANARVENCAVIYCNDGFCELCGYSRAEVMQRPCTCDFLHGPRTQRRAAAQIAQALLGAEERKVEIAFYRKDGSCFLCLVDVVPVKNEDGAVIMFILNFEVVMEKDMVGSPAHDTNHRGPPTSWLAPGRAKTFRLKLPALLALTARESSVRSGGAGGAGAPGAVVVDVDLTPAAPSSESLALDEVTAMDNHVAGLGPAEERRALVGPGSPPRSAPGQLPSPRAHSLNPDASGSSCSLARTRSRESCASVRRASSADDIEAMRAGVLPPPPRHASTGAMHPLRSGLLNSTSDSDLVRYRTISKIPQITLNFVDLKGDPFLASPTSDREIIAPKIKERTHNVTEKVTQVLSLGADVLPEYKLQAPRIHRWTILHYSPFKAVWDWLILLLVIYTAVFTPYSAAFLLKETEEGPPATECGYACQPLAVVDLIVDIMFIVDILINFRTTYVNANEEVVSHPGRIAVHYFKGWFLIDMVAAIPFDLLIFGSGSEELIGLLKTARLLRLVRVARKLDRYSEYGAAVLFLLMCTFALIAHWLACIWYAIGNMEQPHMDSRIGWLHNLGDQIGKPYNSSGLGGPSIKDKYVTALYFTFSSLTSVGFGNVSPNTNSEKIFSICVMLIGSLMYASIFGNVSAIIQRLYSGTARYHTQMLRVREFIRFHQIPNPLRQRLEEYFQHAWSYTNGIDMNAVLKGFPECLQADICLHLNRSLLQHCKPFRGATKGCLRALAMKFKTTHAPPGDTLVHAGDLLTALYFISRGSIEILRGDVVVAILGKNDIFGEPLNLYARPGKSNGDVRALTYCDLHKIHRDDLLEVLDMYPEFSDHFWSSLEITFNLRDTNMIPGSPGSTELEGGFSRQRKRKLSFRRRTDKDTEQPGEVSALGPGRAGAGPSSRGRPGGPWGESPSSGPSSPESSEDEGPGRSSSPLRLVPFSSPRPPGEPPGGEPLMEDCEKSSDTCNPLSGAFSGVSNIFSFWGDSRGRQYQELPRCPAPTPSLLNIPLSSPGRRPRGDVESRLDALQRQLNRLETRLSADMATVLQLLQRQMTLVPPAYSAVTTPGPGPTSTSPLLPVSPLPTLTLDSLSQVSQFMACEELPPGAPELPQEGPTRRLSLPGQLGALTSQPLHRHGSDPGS

[3] = Acute toxicity in ICR mouse assessed as mouse survival at 500 mg/kg, po observed continuously for 4 hrs and each hr for next 24 hrs and at 8 hrs interval for following 7 days; assay type: organism-based; details: in vivo
[4] = Cmax in SPF ICR mouse at 25 mg/kg, po measured upto 24 hrs by HPLC analysis; assay type: ADME, organism-based; design: dose 25 mg/kg, route oral; details: in vivo
[5] = Half life in SPF ICR mouse at 25 mg/kg, po measured upto 24 hrs by HPLC analysis; assay type: ADME, organism-based; details: in vivo
[6] = AUC (0 to t) in SPF ICR mouse at 25 mg/kg, po measured upto 24 hrs by HPLC analysis; assay type: ADME, organism-based; design: dose 25 mg/kg, time < 24 hr, route oral; details: in vivo
[7] = Tmax in SPF ICR mouse at 25 mg/kg, po measured upto 24 hrs by HPLC analysis; assay type: ADME, organism-based; details: in vivo

Compound	MIC [1]	inhibition at 10 µM (hERG (KCNH2))	further results
O=c1nc(N2CCC3(CCN(Cc4ccc(F)cc4)C3)CC2)sc2c([N+](=O)[O-])cc(C(F)(F)F)cc12	< 0.035 µM	95.7%	Activity [2]: 3.2 log10CFU
O=c1nc(N2CCC3(CCN(Cc4ccc(Br)cc4)CC3)CC2)sc2c([N+](=O)[O-])cc(C(F)(F)F)cc12	< 0.035 µM	97%	–
O=c1nc(N2CCC3(CCN(Cc4ccc(C(F)(F)F)cc4)CC3)CC2)sc2c([N+](=O)[O-])cc(C(F)(F)F)cc12	< 0.035 µM	94.6%	–
O=c1nc(N2CC3CCC2CN3Cc2ccc(F)cc2)sc2c([N+](=O)[O-])cc(C(F)(F)F)cc12 (centres undefined)	0.078 µM (≈ 0.0386 µg/mL)	34.9%	Activity [3]: Non-Toxic; Cmax [4]: 3040 ng/mL; half-life [5]: 75 min; AUC(0-t) at 24 h [6]: 3550 ng·h/mL; Tmax [7]: 15 min
O=c1nc(N2CCC3(CCN(CCc4ccc(F)cc4)C3)CC2)sc2c([N+](=O)[O-])cc(C(F)(F)F)cc12	0.055 µM (≈ 0.0295 µg/mL)	92.7%	–
O=c1nc(N2CCC3(CCN(Cc4ccncc4)C3)CC2)sc2c([N+](=O)[O-])cc(C(F)(F)F)cc12	0.122 µM (≈ 0.0617 µg/mL)	74.1%	–
O=c1nc(N2CCC3(CCN(Cc4cccc(F)c4F)C3)CC2)sc2c([N+](=O)[O-])cc(C(F)(F)F)cc12	< 0.035 µM	88.5%	–
Cn1cccc1CN1CCC2(CCN(c3nc(=O)c4cc(C(F)(F)F)cc([N+](=O)[O-])c4s3)CC2)C1	0.479 µM (≈ 0.243 µg/mL)	–	–
O=c1nc(N2CCC3(CCN(CCCc4ccc(F)cc4)C3)CC2)sc2c([N+](=O)[O-])cc(C(F)(F)F)cc12	< 0.035 µM	85.8%	–
O=c1nc(N2CCC3(CCN(Cc4ccc([N+](=O)[O-])cc4)C3)CC2)sc2c([N+](=O)[O-])cc(C(F)(F)F)cc12	< 0.035 µM	94.1%	–
COc1ccc2[nH]cc(CN3CCC4(CCN(c5nc(=O)c6cc(C(F)(F)F)cc([N+](=O)[O-])c6s5)CC4)C3)c2c1	1.48 µM (≈ 0.848 µg/mL)	–	–
O=c1nc(N2CCC3(CCN(Cc4ccccc4F)C3)CC2)sc2c([N+](=O)[O-])cc(C(F)(F)F)cc12	< 0.035 µM	94.9%	–
N#Cc1ccc(CN2CCC3(CCN(c4nc(=O)c5cc(C(F)(F)F)cc([N+](=O)[O-])c5s4)CC3)C2)cc1	< 0.035 µM	90.6%	–
O=c1nc(N2CCC3(CCN(Cc4cc(C(F)(F)F)cc(C(F)(F)F)c4)C3)CC2)sc2c([N+](=O)[O-])cc(C(F)(F)F)cc12	< 0.035 µM	83.3%	–
O=c1nc(N2CCC3(CCN(Cc4cccnc4)C3)CC2)sc2c([N+](=O)[O-])cc(C(F)(F)F)cc12	0.235 µM (≈ 0.119 µg/mL)	–	–
O=c1nc(N2CCC3(CCN(Cc4ccc([N+](=O)[O-])c(Br)c4)C3)CC2)sc2c([N+](=O)[O-])cc(C(F)(F)F)cc12	< 0.035 µM	88.6%	–
O=c1nc(N2CCC3(CCN(Cc4cccs4)C3)CC2)sc2c([N+](=O)[O-])cc(C(F)(F)F)cc12	< 0.035 µM	96.2%	–
O=c1nc(N2CCC3(CCN(c4ccc(F)cc4)C3)CC2)sc2c([N+](=O)[O-])cc(C(F)(F)F)cc12	< 0.035 µM	23%	Activity [3]: Non-Toxic; Cmax [4]: 1610 ng/mL; half-life [5]: 287 min; AUC(0-t) at 24 h [6]: 5030 ng·h/mL; Tmax [7]: 30 min

Compound	MIC [1]	inhibition at 10 µM (hERG (KCNH2))	further results
CC(c1ccc(F)cc1)N1CCC2(CCN(c3nc(=O)c4cc(C(F)(F)F)cc([N+](=O)[O-])c4s3)CC2)CC1 (centres undefined)	0.107 µM (≈ 0.0589 µg/mL)	74%	–
O=c1nc(N2CC3CC2CN3Cc2ccc(F)cc2)sc2c([N+](=O)[O-])cc(C(F)(F)F)cc12 (centres undefined)	< 0.035 µM	94.3%	–
O=c1nc(N2CCC3(CCN(Cc4ccc5ccccc5c4)C3)CC2)sc2c([N+](=O)[O-])cc(C(F)(F)F)cc12	< 0.035 µM	78.1%	–
CC(c1ccc(Br)cc1)N1CCC2(CCN(c3nc(=O)c4cc(C(F)(F)F)cc([N+](=O)[O-])c4s3)CC2)CC1 (centres undefined)	< 0.035 µM	77.2%	–
O=c1nc(N2CCC3(CCN(Cc4cccc5ccccc45)C3)CC2)sc2c([N+](=O)[O-])cc(C(F)(F)F)cc12	0.055 µM (≈ 0.0305 µg/mL)	–	–
CC(c1ccc(Cl)cc1)N1CCC2(CCN(c3nc(=O)c4cc(C(F)(F)F)cc([N+](=O)[O-])c4s3)CC2)CC1 (centres undefined)	< 0.035 µM	73.4%	–
O=c1nc(N2CC3CN(Cc4ccc(F)cc4)CC3C2)sc2c([N+](=O)[O-])cc(C(F)(F)F)cc12 (centres undefined)	0.248 µM (≈ 0.123 µg/mL)	–	–
O=c1nc(N2CCC3(CCN(Cc4ccc[nH]4)C3)CC2)sc2c([N+](=O)[O-])cc(C(F)(F)F)cc12	1.58 µM (≈ 0.778 µg/mL)	–	–
CCC(c1ccc(C(F)(F)F)cc1)N1CCC2(CCN(c3nc(=O)c4cc(C(F)(F)F)cc([N+](=O)[O-])c4s3)CC2)CC1 (centres undefined)	< 0.035 µM	69.7%	–
O=c1nc(N2CCC3(CCN(Cc4ccccn4)C3)CC2)sc2c([N+](=O)[O-])cc(C(F)(F)F)cc12	0.477 µM (≈ 0.241 µg/mL)	–	–
O=c1nc(N2CCC3(CCN(Cc4ccc(OC(F)(F)F)cc4)C3)CC2)sc2c([N+](=O)[O-])cc(C(F)(F)F)cc12	< 0.035 µM	90.2%	–
CC(c1ccc(C(F)(F)F)cc1)N1CCC2(CCN(c3nc(=O)c4cc(C(F)(F)F)cc([N+](=O)[O-])c4s3)CC2)CC1 (centres undefined)	< 0.035 µM	72.9%	–
O=c1nc(N2CCC3(CCN(Cc4ccc(C(F)(F)F)cc4C(F)(F)F)C3)CC2)sc2c([N+](=O)[O-])cc(C(F)(F)F)cc12	< 0.035 µM	68.6%	–
O=c1nc(N2CCC3(CCN(Cc4ncco4)C3)CC2)sc2c([N+](=O)[O-])cc(C(F)(F)F)cc12	0.248 µM (≈ 0.123 µg/mL)	53.2%	–
O=c1nc(N2CCN(C3CCN(Cc4ccc(F)cc4)CC3)CC2)sc2c([N+](=O)[O-])cc(C(F)(F)F)cc12	0.054 µM (≈ 0.0298 µg/mL)	95.6%	–
NNC(=O)c1ccncc1 [ISONIAZID]	0.269 µM (≈ 0.0369 µg/mL)	–	–
O=c1nc(N2CCN(CC3CCCCC3)CC2)sc2c([N+](=O)[O-])cc(C(F)(F)F)cc12 [MACOZINONE]	< 0.035 µM	41.6%	Activity [3]: Non-Toxic; Cmax [4]: 1750 ng/mL; half-life [5]: 380 min; AUC(0-t) at 24 h [6]: 2480 ng·h/mL; Tmax [7]: 19.8 min
CO[C@H]1/C=C/O[C@@]2(C)Oc3c(C)c(O)c4c(O)c(c(/C=N/N5CCN(C)CC5)c(O)c4c3C2=O)NC(=O)/C(C)=C\C=C\[C@H](C)[C@H](O)[C@@H](C)[C@@H](O)[C@@H](C)[C@H](OC(C)=O)[C@@H]1C [RIFAMPIN]	0.164 µM (≈ 0.135 µg/mL)	–	–
